Measured values: patent US8455475B2 (Gruenenthal GmbH, priority 2009, dated 2013)

These compounds were tested against T1, rat B1R (bradykinin receptor 1) (Rattus norvegicus, UniProt P97583) (assay: FLIPR Ca2+ assay (Fluo-4) on CHO K1 cells stably transfected with the B1R gene of the rat (rB1R cells): % inhibition at 10 μM / IC50, agonist Des-Arg9-bradykinin). Details: CHO-K1, rat B1R.
T1 construct: expressed in transfected cells; host or cells: CHO K1 cells
T1 sequence (P97583 1-337): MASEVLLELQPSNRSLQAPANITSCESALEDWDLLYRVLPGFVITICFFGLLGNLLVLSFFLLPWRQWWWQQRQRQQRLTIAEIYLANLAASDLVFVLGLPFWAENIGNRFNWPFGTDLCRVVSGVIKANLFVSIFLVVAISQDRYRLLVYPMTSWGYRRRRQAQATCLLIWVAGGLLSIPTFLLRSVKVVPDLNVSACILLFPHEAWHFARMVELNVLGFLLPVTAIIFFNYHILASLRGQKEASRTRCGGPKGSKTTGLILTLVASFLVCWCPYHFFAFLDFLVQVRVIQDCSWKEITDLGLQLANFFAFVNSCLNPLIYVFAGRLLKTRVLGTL
Format: cell-based
Experimental: The agonistic or antagonistic action of substances can be quantified on the bradykinin receptor 1 (B1R) of the human and rat species with ectopically expressing cell lines (CHO K1 cells) and with the aid of a Ca^2+-sensitive dyestuff (Fluo-4) in a fluorescent imaging plate reader (FLIPR). The figure in % activation is based on the Ca^2+ signal after addition of Lys-Des-Arg^9-bradykinin (0.5 nM) or Des-Arg^9-bradykinin (100 nM). Antagonists lead to a suppression of the Ca^2+ inflow after addition of the agonist. % inhibition compared with the maximum achievable inhibition is stated.
The agonistic or antagonistic action of substances can be determined on the bradykinin receptor 1 (B1R) of the human and rat species with the following assay. In accordance with this assay, the Ca^2+ inflow through the channel is quantified with the aid of a Ca^2+-sensitive dyestuff (type Fluo-4, Molecular Probes Europe BV, Leiden, Holland) in a fluorescent imaging plate reader (FLIPR, Molecular Devices, Sunnyvale, USA).
Chinese hamster ovary cells (CHO K1 cells) transfected stably with the human B1R gene (hB1R cells) or the B1R gene of the rat (rB1R cells) are used. For functional studies, these cells are plated out on black 96-well plates with a clear base (BD Biosciences, Heidelberg, Germany or Greiner, Frickenhausen, Germany) in a density of 20,000-35,000 cells/well. The cells are left overnight at 37° C. and 5% CO2 in culture medium (hB1R cells: Nutrient Mixture Ham's F12, Gibco Invitrogen GmbH, Karlsruhe, Germany or DMEM, Sigma-Aldrich, Taufkirchen, Germany; rB1R cells: D-MEM/F12, Gibco Invitrogen GmbH, Karlsruhe, Germany) with 10 vol. % FBS (foetal bovine serum, Gibco Invitrogen GmbH, Karlsruhe, Germany or PAN Biotech GmbH, Aidenbach, Germany). On the following day, the cells are loaded for 60 min at 37° C. with 2.13 μM Fluo-4 (Molecular Probes Europe BV, Leiden Holland) in HBSS buffer (Hank's buffered saline solution, Gibco Invitrogen GmbH, Karlsruhe, Germany) with 2.5 mM probenecid (Sigma-Aldrich, Taufkirchen, Germany) and 10 mM HEPES (Sigma-Aldrich, Taufkirchen, Germany). The plates are then washed 2× with HBSS buffer, and HBSS buffer which additionally contains 0.1% BSA (bovine serum albumin; Sigma-Aldrich, Taufkirchen, Germany), 5.6 mM glucose and 0.05% gelatine (Merck KGaA, Darmstadt, Germany) is added. After a further incubation of 20 minutes at room temperature, the plates are inserted into the FLIPR for the Ca^2+ measurement. Alternatively, the plates are washed with buffer A (15 mM HEPES, 80 mM NaCl, 5 mM KCl, 1.2 mM CaCl2, 0.7 mM MgSO4, 2 g/l glucose, 2.5 mM probenecid), buffer A is added and the plates are loaded with 2.5 μM Fluo-4 and 0.025% Pluronic F127 (Sigma-Aldrich, Taufkirchen, Germany). Thereafter, the cells are washed 2× with buffer A and incubated for 30 minutes at room temperature with buffer A, which additionally contains 0.05% BSA and 0.05% gelatine, and thereafter inserted into the FLIPR for the Ca^2+ measurement. The Ca^2+-dependent fluorescence is measured here before and after addition of substances (λex=488 nm, λem=540 nm). Quantification is by measurement of the highest fluorescence intensity (FC, fluorescence counts) over time.
The FLIPR protocol consists of 2 additions of substance. Test substances (10 μM) are first pipetted on to the cells and the Ca^2+ inflow is compared with the control (hB1R: Lys-Des-Arg^9-bradykinin>=50 nM; rB1R: Des-Arg^9-bradykinin 10 μM). This gives the result in % activation based on the Ca^2+ signal after addition of Lys-Des-Arg^9-bradykinin (>=50 nM) or Des-Arg^9-bradykinin (10 μM). After incubation for 10-20 minutes, Lys-Des-Arg^9-bradykinin (hB1R) or Des-Arg^9-bradykinin (rB1R) in the concentration of the EC80 is applied and the inflow of Ca^2+ is likewise determined. Antagonists lead to a suppression of the Ca^2+ inflow. % inhibition compared with the maximum achievable inhibition is calculated.
For determination of the IC50 value, the substances are added in various concentrations. […]

Compound | inhibition at 10 µM
O=C(NC1CCc2ccc(C(=O)N3CCC4(CCN(CC5CCCCC5)CC4)C3)cc21)c1cc(C(F)(F)F)ccc1Cl (centres unmarked) [IND_CC-689, 2-Chloro-N-[6-[8-(cyclohexyl-methyl)-2,8-diazaspiro[4.5]decane-2-carbonyl]-2,3-dihydro-1H-inden-1-yl]-5-(trifluoromethyl)-benzamide] | 55%
CN(C)c1ncc(CN2CCC3(CC2)CCN(C(=O)c2ccc4c(c2)C(NC(=O)c2cccc(Cl)c2Cl)CC4)CC3)cn1 (centres unmarked) [IND_CC-753, 2,3-Dichloro-N-[6-[9-[(2-dimethylamino-pyrimidin-5-yl)-methyl]-3,9-diazaspiro[5.5]undecane-3-carbonyl]-2,3-dihydro-1H-inden-1-yl]-benzamide] | 90%
Cc1cccc(Cl)c1C(=O)NC1CCc2ccc(C(=O)N3CCC4(CCN(Cc5c(F)cccc5Cl)CC4)C3)cc21 (centres unmarked) [IND_CC-735, 2-Chloro-N-[6-[8-[(2-chloro-6-fluoro-phenyl)-methyl]-2,8-diazaspiro-[4.5]decane-2-carbonyl]-2,3-dihydro-1H-inden-1-yl]-6-methyl-benzamide] | 81%
O=C(NC1CCc2ccc(C(=O)N3CCC4(CCN(Cc5ccc(F)c(F)c5)CC4)CC3)cc21)c1c(F)cccc1Cl (centres unmarked) [IND_CC-789, 2-Chloro-N-[6-[9-[(3,4-difluoro-phenyl)-methyl]-3,9-diazaspiro[5.5]undecane-3-carbonyl]-2,3-dihydro-1H-inden-1-yl]-6-fluoro-benzamide] | 98%
Cc1cccc(Cl)c1C(=O)NC1CCc2ccc(C(=O)N3CCC4(CCN(CC(C)C)CC4)C3)cc21 (centres unmarked) [IND_CC-767, 2-Chloro-6-methyl-N-[6-[8-(2-methyl-propyl)-2,8-diazaspiro[4.5]decane-2-carbonyl]-2,3-dihydro-1H-inden-1-yl]-benzamide] | 73%
N#Cc1ccccc1CN1CCC2(CC1)CCN(C(=O)c1ccc3c(c1)C(NC(=O)c1cc(C(F)(F)F)ccc1Cl)CC3)C2 (centres unmarked) [IND_CC-660, 2-Chloro-N-[6-[8-[(2-cyano-phenyl)-methyl]-2,8-diazaspiro[4.5]decane-2-carbonyl]-2,3-dihydro-1H-inden-1-yl]-5-(trifluoromethyl)-benzamide] | 50%

The remaining lines, values ahead:

inhibition at 10 µM | Compound
65% | Cc1cc(OC(F)(F)F)ccc1C(=O)NC1CCc2ccc(C(=O)N3CCC4(CC3)CCN(c3ccncc3)CC4)cc21 (centres unmarked) [IND_CC-300, 2-Methyl-N-[6-(9-pyridin-4-yl-3,9-diazaspiro[5.5]undecane-3-carbonyl)-2,3-dihydro-1H-inden-1-yl]-4-(trifluoromethyloxy)-benzamide]
103% | Cc1cc(F)ccc1S(=O)(=O)NC1CC(C)(C)c2ccc(C(=O)N3CCC4(CC3)CCN(c3ccncc3)CC4)cc21 (centres unmarked) [IND_CC-339, N-[3,3-Dimethyl-6-(3-pyridin-4-yl-3,9-diazaspiro[5.5]undecane-9-carbonyl)-1,2-dihydro-inden-1-yl]-4-fluoro-2-methyl-benzenesulfonic acid amide]
106% | Cc1ccc(C(=O)NC2CCc3ccc(C(=O)N4CCC5(CC4)CCN(c4ccncc4)C5)cc32)c(F)c1 (centres unmarked) [IND_CC-306, 2-Fluoro-4-methyl-N-[6-(2-pyridin-4-yl-2,8-diazaspiro[4.5]decane-8-carbonyl)-2,3-dihydro-1H-inden-1-yl]-benzamide]
102% | CC(C)CC(=O)NC1CCc2ccc(C(=O)N3CCC4(CCN(c5ccncc5)CC4)C3)cc21 (centres unmarked) [IND_CC-409, 3-Methyl-N-[6-(8-pyridin-4-yl-2,8-diazaspiro[4.5]decane-2-carbonyl)-2,3-dihydro-1H-inden-1-yl]-butyramide]
60% | N#Cc1cccc(CN2CCC3(CC2)CCN(C(=O)c2ccc4c(c2)C(NC(=O)c2cc(Cl)ccc2F)CC4)CC3)c1 (centres unmarked) [IND_CC-654, 5-Chloro-N-[6-[9-[(3-cyano-phenyl)-methyl]-3,9-diazaspiro[5.5]undecane-3-carbonyl]-2,3-dihydro-1H-inden-1-yl]-2-fluoro-benzamide]
